Experimental data: patent US8664203B2, “Thiazole derivatives and their use as P2Y12 receptor antagonists” (Actelion Pharmaceuticals Ltd., priority 2009, dated 2014)
Structures can show the parent of a compound that is named as a salt.

Molecular target: T1, human P2Y12 receptor (Homo sapiens, UniProt Q9H244)
T1 construct: expressed in transfected cells; host or cells: CHO cells
Assay: P2Y12 receptor binding assay
Settings: CHO cells with recombinant expression of the human P2Y12 receptor; tritium-labeled 2-methyl-S-ADP; RT, 2 hours
Method: P2Y12 Receptor Binding Assay
Chinese Hamster Ovary (CHO) cells with recombinant expression of the human P2Y12 receptor were cultured in 24 well cell-culture plates. Cells were washed three times with binding buffer (50 mM Tris pH 7.4, 100 mM NaCl, 1 mM EDTA, 0.5% BSA). The cells were then incubated with 0.5 ml per well binding buffer containing tritium-labeled 2-methyl-thio-adenosine 5′-diphosphate (2-methyl-S-ADP) (between 100′000 and 300′000 dpm per well) and various concentrations of test compounds. After incubation at RT for 2 hours, cells were washed three times with binding buffer. Then, cells were solubilized by addition of 0.5 ml solubilization buffer (SDS, NaOH, EDTA). The content of each well was then transferred into beta-counter vials and 2.0 ml of Ultima Gold Scintillation liquid was added.

T1 sequence (Q9H244 whole entry): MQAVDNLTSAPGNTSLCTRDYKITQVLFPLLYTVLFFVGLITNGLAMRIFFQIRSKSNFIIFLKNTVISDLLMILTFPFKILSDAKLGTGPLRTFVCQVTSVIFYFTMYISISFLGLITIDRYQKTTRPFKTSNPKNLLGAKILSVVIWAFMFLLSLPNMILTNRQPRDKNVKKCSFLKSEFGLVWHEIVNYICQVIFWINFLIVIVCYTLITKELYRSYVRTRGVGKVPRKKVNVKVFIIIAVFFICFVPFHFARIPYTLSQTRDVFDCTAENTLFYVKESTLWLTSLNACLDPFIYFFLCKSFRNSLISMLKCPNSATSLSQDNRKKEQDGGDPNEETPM

For `CCCCOC(=O)N1CCN(C(=O)[C@H](CO)NC(=O)c2csc(-c3ccccc3)n2)CC1` [Example 38, 4-{(S)-3-Hydroxy-2-[(2-phenyl-thiazole-4-carbonyl)-amino]-propionyl}-piperazine-1-carboxylic acid butyl ester], the IC50 was 71 nM.
Compound `CCCCOC(=O)N1CCN(C(=O)CNC(=O)c2nc(-c3ccccc3)c(CCC(=O)OC)s2)CC1` [Example 54, 4-(2-{[5-(2-Methoxycarbonyl-ethyl)-4-phenyl-thiazole-2-carbonyl]-amino}-acetyl)-piperazine-1-carboxylic acid butyl ester] has an IC50 of 547 nM.
With `CCCCOC(=O)N1CCN(C(=O)[C@H](CCC(=O)O)NC(=O)c2nc(-c3ccccc3)sc2/C=C/C(=O)O)CC1` [Example 19, 4-((S)-4-Carboxy-2-{[5-((E)-2-carboxy-vinyl)-2-phenyl-thiazole-4-carbonyl]-amino}-butyryl)-piperazine-1-carboxylic acid butyl ester] the IC50 was 6 nM.
In the case of `CCCCOC(=O)N1CCN(C(=O)CNC(=O)c2nc(-c3ccccc3)sc2C=CCOC)CC1` [Example 34, 4-(2-{[5-(3-Methoxy-propenyl)-2-phenyl-thiazole-4-carbonyl]-amino}-acetyl)-piperazine-1-carboxylic acid butyl ester], the IC50 is reported as 85 nM.
For `CCCCOC(=O)N1CCN(C(=O)[C@H](CCC(=O)O)NC(=O)c2nc(-c3ccccc3)sc2CCC(=O)O)CC1` [Example 20, 4-((S)-4-Carboxy-2-{[5-(2-carboxy-ethyl)-2-phenyl-thiazole-4-carbonyl]-amino}-butyryl)-piperazine-1-carboxylic acid butyl ester], the IC50 was 13 nM.
`CCCCOC(=O)N1CCN(C(=O)[C@H](CCC(=O)O)NC(=O)c2nc(-c3ccccc3)sc2-c2ccccc2)CC1` [Example 17, 4-{(S)-4-Carboxy-2-[(2,5-diphenyl-thiazole-4-carbonyl)-amino]-butyryl}-piperazine-1-carboxylic acid butyl ester] showed an IC50 of 43 nM.
`CCCCOC(=O)N1CCN(C(=O)[C@H](CCC(=O)O)NC(=O)c2nc(-c3ccccc3)sc2/C=C/COC)CC1` [Example 21, 4-((S)-4-Carboxy-2-{[5-((E)-3-methoxy-propenyl)-2-phenyl-thiazole-4-carbonyl]-amino}-butyryl)-piperazine-1-carboxylic acid butyl ester] showed an IC50 of 19 nM.
With `CCCCOC(=O)N1CCN(C(=O)CNC(=O)c2nc(-c3ccccc3)c(CCC(=O)O)s2)CC1` [Example 55, 4-(2-{[5-(2-Carboxy-ethyl)-4-phenyl-thiazole-2-carbonyl]-amino}-acetyl)-piperazine-1-carboxylic acid butyl ester] the IC50 was 314 nM.
`CCCCOC(=O)N1CCN(C(=O)CNC(=O)c2csc(-c3ccccc3)n2)CC1` [Example 26, 4-{2-[(2-Phenyl-thiazole-4-carbonyl)-amino]-acetyl}-piperazine-1-carboxylic acid butyl ester] was tested, and the IC50 was 94 nM.
Work on `CCCCOC(=O)N1CCN(C(=O)[C@H](CP(=O)(O)O)NC(=O)c2nc(-c3ccccc3)sc2N2CCN(C)CC2)CC1` [Example 45, 4-((R)-2-{[5-(4-Methyl-piperazin-1-yl)-2-phenyl-thiazole-4-carbonyl]-amino}-3-phosphono-propionyl)-piperazine-1-carboxylic acid butyl ester; hydrochloride] yielded an IC50 of 3 nM.
Compound `CCCCOC(=O)N1CCN(C(=O)CNC(=O)c2nc(-c3ccccc3)sc2CCC(=O)O)CC1` [Example 33, 4-(2-{[5-(2-Carboxy-ethyl)-2-phenyl-thiazole-4-carbonyl]-amino}-acetyl)-piperazine-1-carboxylic acid butyl ester] has an IC50 of 31 nM.
Compound `CCCCOC(=O)N1CCN(C(=O)[C@H](CO)NC(=O)c2nc(-c3ccccc3)sc2/C=C/C(=O)O)CC1` [Example 39, 4-((S)-2-{[5-((E)-2-Carboxy-vinyl)-2-phenyl-thiazole-4-carbonyl]-amino}-3-hydroxy-propionyl)-piperazine-1-carboxylic acid butyl ester] has an IC50 of 35 nM.
`CCOC(=O)N1CCN(C(=O)CNC(=O)c2csc(-c3ccccc3)n2)CC1` [Example 1, 4-{2-[(2-Phenyl-thiazole-4-carbonyl)-amino]-acetyl}-piperazine-1-carboxylic acid ethyl ester] was tested, and the IC50 was 9150 nM.
With `CCCCOC(=O)N1CCN(C(=O)[C@H](CP(=O)(OCC)OCC)NC(=O)c2nc(-c3ccccc3)sc2N2CCN(C)CC2)CC1` [Example 44, 4-((R)-3-(Diethoxy-phosphoryl)-2-{[5-(4-methyl-piperazin-1-yl)-2-phenyl-thiazole-4-carbonyl]-amino}-propionyl)-piperazine-1-carboxylic acid butyl ester] the IC50 was 4180 nM.
`CCCCOC(=O)N1CCN(C(=O)[C@H](CCC(=O)O)NC(=O)c2csc(-c3ccccc3C)n2)CC1` [Example 6, 4-{(S)-4-Carboxy-2-[(2-o-tolyl-thiazole-4-carbonyl)-amino]-butyryl}-piperazine-1-carboxylic acid butyl ester] was tested, and the IC50 was 334 nM.
Compound `CCCCOC(=O)N1CCN(C(=O)CNC(=O)c2nc(-c3ccccc3)sc2CCCOC)CC1` [Example 35, 4-(2-{[5-(3-Methoxy-propyl)-2-phenyl-thiazole-4-carbonyl]-amino}-acetyl)-piperazine-1-carboxylic acid butyl ester] has an IC50 of 99 nM.
In the case of `CCCCOC(=O)N1CCN(C(=O)CNC(=O)c2nc(-c3ccccc3)sc2NCCCO)CC1` [Example 27, 4-(2-{[5-(3-Hydroxy-propylamino)-2-phenyl-thiazole-4-carbonyl]-amino}-acetyl)-piperazine-1-carboxylic acid butyl ester], the IC50 is reported as 34 nM.
`CCCCOC(=O)N1CCN(C(=O)[C@H](CCC(=O)O)NC(=O)c2nc(-c3ccccc3)c(Br)s2)CC1` [Example 56, 4-{(S)-2-[(5-Bromo-4-phenyl-thiazole-2-carbonyl)-amino]-4-carboxy-butyryl}-piperazine-1-carboxylic acid butyl ester] gave an IC50 of 45 nM.
`CCOC(=O)N1CCN(C(=O)[C@H](CCC(=O)O)NC(=O)c2csc(-c3ccccc3)n2)CC1` [Example 2, 4-{(S)-4-Carboxy-2-[(2-phenyl-thiazole-4-carbonyl)-amino]-butyryl}-piperazine-1-carboxylic acid ethyl ester] showed an IC50 of 246 nM.
`CCCCOC(=O)N1CCN(C(=O)CNC(=O)c2nc(-c3ccccc3)c(/C=C/COC)s2)CC1` [Example 51, 4-(2-{[5-((E)-3-Methoxy-propenyl)-4-phenyl-thiazole-2-carbonyl]-amino}-acetyl)-piperazine-1-carboxylic acid butyl ester] gave an IC50 of 380 nM.
With `CCCCOC(=O)N1CCN(C(=O)[C@H](CP(=O)(OCC)OCC)NC(=O)c2nc(-c3ccccc3)sc2N(C)CCCC)CC1` [Example 46, 4-[(R)-2-{[5-(Butyl-methyl-amino)-2-phenyl-thiazole-4-carbonyl]-amino}-3-(diethoxy-phosphoryl)-propionyl]-piperazine-1-carboxylic acid butyl ester] the IC50 was 821 nM.
Work on `CCCCOC(=O)N1CCN(C(=O)[C@@H](NC(=O)c2csc(-c3ccccc3)n2)C(C)C)CC1` [Example 36, 4-{(S)-3-Methyl-2-[(2-phenyl-thiazole-4-carbonyl)-amino]-butyryl}-piperazine-1-carboxylic acid butyl ester] yielded an IC50 of 104 nM.
For `CCCCOC(=O)N1CCN(C(=O)[C@H](CCC(=O)OC(C)(C)C)NC(=O)c2nc(-c3ccccc3)sc2Br)CC1` [Example 14, 4-{(S)-2-[(5-Bromo-2-phenyl-thiazole-4-carbonyl)-amino]-4-tert-butoxycarbonyl-butyryl}-piperazine-1-carboxylic acid butyl ester], the IC50 was 1220 nM.
Work on `CCCCOC(=O)N1CCN(C(=O)[C@H](CP(=O)(O)O)NC(=O)c2nc(-c3ccccc3)sc2N(C)CCCC)CC1` [Example 47, 4-((R)-2-{[5-(Butyl-methyl-amino)-2-phenyl-thiazole-4-carbonyl]-amino}-3-phosphono-propionyl)-piperazine-1-carboxylic acid butyl ester] yielded an IC50 of 3 nM.
`CCCCOC(=O)N1CCN(C(=O)[C@H](CP(=O)(O)O)NC(=O)c2csc(-c3ccc(F)cc3)n2)CC1` [Example 41, 4-((R)-2-{[2-(4-Fluoro-phenyl)-thiazole-4-carbonyl]-amino}-3-phosphono-propionyl)-piperazine-1-carboxylic acid butyl ester] was tested, and the IC50 was 6 nM.
Compound `CCCCOC(=O)N1CCN(C(=O)[C@H](CCC(=O)O)NC(=O)c2nc(-c3ccccc3)sc2N2CCCC2)CC1` [Example 24, 4-{(S)-4-Carboxy-2-[(2-phenyl-5-pyrrolidin-1-yl-thiazole-4-carbonyl)-amino]-butyryl}-piperazine-1-carboxylic acid butyl ester] has an IC50 of 7 nM.
Compound `CCCCOC(=O)N1CCN(C(=O)CNC(=O)c2nc(-c3ccccc3)sc2/C=C/C(=O)OCC)CC1` [Example 30, 4-(2-{[5-((E)-2-Ethoxycarbonyl-vinyl)-2-phenyl-thiazole-4-carbonyl]-amino}-acetyl)-piperazine-1-carboxylic acid butyl ester] has an IC50 of 268 nM.
For `CCCCCCN(C)c1sc(C(=O)NCC(=O)N2CCN(C(=O)OCCCC)CC2)nc1-c1ccccc1` [Example 60, 4-(2-{[5-(Hexyl-methyl-amino)-4-phenyl-thiazole-2-carbonyl]-amino}-acetyl)-piperazine-1-carboxylic acid butyl ester], the IC50 was 1560 nM.
In the case of `CCCCOC(=O)N1CCN(C(=O)CNC(=O)c2nc(-c3ccccc3)sc2-c2cccc(F)c2)CC1` [Example 29, 4-(2-{[5-(3-Fluoro-phenyl)-2-phenyl-thiazole-4-carbonyl]-amino}-acetyl)-piperazine-1-carboxylic acid butyl ester], the IC50 is reported as 525 nM.
